In patent US10266544B2, “Aryl substituted aminomethyl spectinomycin analogs as antibacterial agents” (ST. JUDE CHILDREN'S RESEARCH HOSPITAL, INC., priority 2013, dated 2019):
In brackets after ≈: the same amount, converted by molar mass. Where a name gives a salt, the structure may show the parent alone. Read-outs that look alike come from different tables or passages of the source.

Experiments:
Format in all cases: cell-based
[1] = tested on: M. tuberculosis clinical isolates; test: microbe, parasite or virus in culture; details: Mycobacterium tuberculosis, H37RV, read-out: MIC H37Rv
[2] = tested on: Streptococcus pneumoniae (R6); test: MIC determination, microbroth dilution
[3] = tested on: Staphylococcus aureus (ATCC 29213); test: MIC determination, microbroth dilution; details: ATCC29213; Staphylococcus aureus (ATCC 29213); read-out: MIC S.a.
[4] = tested on: Bacillus subtilis (ATCC 23857); test: MIC determination, microbroth dilution; details: ATCC23857; Bacillus subtilis (ATCC 23857); read-out: MIC B.s.
[5] = tested on: Enterococcus faecalis (ATCC 33186); test: MIC determination, microbroth dilution; details: ATCC33186; Enterococcus faecalis (ATCC 33186); read-out: MIC E.f.
[6] = tested on: Streptococcus pyogenes (ATCC 700294); test: MIC determination, microbroth dilution; details: ATCC700294; Streptococcus pyogenes (ATCC 700294); read-out: MIC S. py.
[7] = tested on: Bacillus anthracis, Sterne 34F2; test: microbe, parasite or virus in culture; details: STERNE34F2, read-out: MIC B.a.
[8] = tested on: MRSA, Staphylococcus aureus (NRS70); test: MIC determination, microbroth dilution; details: Staphylococcus aureus (NRS70); read-out: MIC MRSA
[9] = tested on: Proteus vulgaris (ATCC 33420); test: MIC determination, microbroth dilution; details: ATCC33420
[10] = tested on: Proteus mirabilis (ATCC 25933); test: MIC determination, microbroth dilution; details: ATCC25933
[11] = tested on: Klebsiella pneumoniae (ATCC 33495); test: MIC determination, microbroth dilution; details: ATCC33495
[12] = tested on: acinetobacter baumannii (ATCC 19606); test: MIC determination, microbroth dilution; details: ATCC19606
[13] = tested on: Pseudomonas aeruginosa (PA01); test: MIC determination, microbroth dilution
[14] = tested on: Escherichia coli (ATCC 700926); test: MIC determination, microbroth dilution
Protocol: MICs were determined using the microbroth dilution method according to Clinical Laboratory Standards Institute (CLSI; National, C. F. C. L. S., Methods for Dilution Antimicrobial Susceptibility Tests for Bacteria Grow aerobically-Seventh Edition: Approved Standard M7-A7, CLSI, Wayne, Pa., USA, 2008) and were read by visual inspection. Two fold serial dilutions of antibiotic in 100 μL of the appropriate broth media were first prepared in 96-well round bottom microtiter plates (Nalge Nunc International, Rochester, N.Y., USA). An equivalent volume (100 μL) of bacterial broth inocula containing approximately 10^5 bacterial cfu/mL was added to each well to give final concentrations of drug starting at 200 μg/mL and the plates were incubated aerobically at 37° C. M. tuberculosis microtiter plates were incubated for 7 days and all other strains were incubated overnight. After incubations, in all cases the MIC was recorded as the lowest concentration of drug that prevented bacterial growth.

[15] = tested on: Burkholderia cepacia (ATCC 25416); test: MIC determination, microbroth dilution; details: Burkholderia cepacia, ATCC25416, read-out: MIC B.c., Burkholderia cepacia (ATCC 25416)
E. coli K12 ΔtolC = test: microbe, parasite or virus in culture; details: Escherichia coli, read-out: MIC E.c. Δtolc
[16] = tested on: Stenotrophomonas maltophilia (ATCC 13637); test: MIC determination, microbroth dilution; details: ATCC13637; Stenotrophomonas maltophilia (ATCC 13637); read-out: MIC S.m.
[17] = tested on: Streptococcus pneumoniae clinical isolates representing several serotypes; test: MIC determination, Streptococcus pneumoniae panel of clinical isolates (Table 7); details: Streptococcus pneumoniae
[18] = Streptococcus pneumoniae (R6), read-out: MIC S. pn.
[19] = ATCC700926, Escherichia coli (ATCC 700926), read-out: MIC E.c.

| SMILES | MIC [2, 18] | MIC [3] | MIC [4] | MIC [6] | MIC [7] | MIC [8] | MIC [9] | MIC [10] | MIC [11] | MIC [12] | MIC [13] | MIC [15] | MIC (E. coli K12 ΔtolC) | MIC [16] | MIC [14, 19] | also measured |
| --- | --- | --- | --- | --- | --- | --- | --- | --- | --- | --- | --- | --- | --- | --- | --- | --- |
| CN[C@@H]1[C@H](O)[C@H](NC)C2O[C@]3(O)C(OC2[C@H]1O)O[C@H](C)C[C@@]3(O)CNCc1ccc2c(c1)OCO2 (stereo partly drawn) [compound 36] | 25 µg/mL (≈ 50.2 µM) | 100 µg/mL (≈ 201 µM) | 12.5 µg/mL (≈ 25.1 µM) | 25 µg/mL (≈ 50.2 µM) | > 200 µg/mL | > 200 µg/mL | – | – | – | – | – | – | – | – | – | MIC [1]: 50 µg/mL (≈ 100 µM); MIC [5]: 100 µg/mL (≈ 201 µM) |
| CN[C@@H]1[C@H](O)[C@H](NC)C2O[C@]3(O)C(OC2[C@H]1O)O[C@H](C)C[C@@]3(O)CNCc1cccc(C(F)(F)F)c1 (stereo partly drawn) [compound 50] | 3.13 µg/mL (≈ 6 µM) | 50 µg/mL (≈ 95.9 µM) | 12.5 µg/mL (≈ 24 µM) | 1.56 µg/mL (≈ 2.99 µM) | > 200 µg/mL | 50 µg/mL (≈ 95.9 µM) | – | – | – | – | – | – | – | – | – | MIC [5]: 25 µg/mL (≈ 47.9 µM) |
| CN[C@@H]1[C@H](O)[C@H](NC)[C@H]2O[C@]3(O)[C@H](O[C@@H]2[C@H]1O)O[C@H](C)C[C@@]3(O)CNCc1cncnc1 [compound 66, 3′-(R)-3′-[(pyrimidin-5-ylmethyl)aminomethyl]dihydrospectinomycin tetrahydrobromide] | 0.8 µg/mL | > 200 µg/mL | 200 µg/mL | 100 µg/mL | 100 µg/mL | > 200 µg/mL | > 200 µg/mL | > 200 µg/mL | 100 to 200 µg/mL | > 200 µg/mL | > 200 µg/mL | > 200 µg/mL | 25 to 50 µg/mL | 100 µg/mL | – | MIC ([14]; Escherichia coli, ATCC700926, read-out: MIC E.c.): 50 µg/mL |
| CN[C@@H]1[C@H](O)[C@H](NC)[C@H]2O[C@]3(O)[C@H](O[C@@H]2[C@H]1O)O[C@H](C)C[C@@]3(O)CNCc1cnccn1 [compound 67, 3′-(R)-3′-[(pyrazin-2-ylmethyl)aminomethyl]dihydrospectinomycin tetrahydrobromide] | 6.3 µg/mL | > 200 µg/mL | 100 µg/mL | 100 µg/mL | 200 µg/mL | > 200 µg/mL | > 200 µg/mL | > 200 µg/mL | 100 µg/mL | > 200 µg/mL | > 200 µg/mL | > 200 µg/mL | 25 to 50 µg/mL | 100 µg/mL | 50 to 100 µg/mL | – |
| CN[C@@H]1[C@H](O)[C@H](NC)[C@H]2O[C@]3(O)[C@H](O[C@@H]2[C@H]1O)O[C@H](C)C[C@@]3(O)CNCc1ccc(SC)cc1 [compound 68, 3′-(R)-3′-[(4-(methylthio)benzylaminomethyl)]dihydrospectinomycin trihydrobromide] | 1.6 µg/mL | 25 µg/mL | 25 µg/mL | 3.1 µg/mL | 25 µg/mL | 50 µg/mL | > 200 µg/mL | > 200 µg/mL | 100 to 200 µg/mL | > 200 µg/mL | 200 µg/mL | > 200 µg/mL | 12.5 µg/mL | 25 µg/mL | 50 µg/mL | – |
| CN[C@@H]1[C@H](O)[C@H](NC)[C@H]2O[C@]3(O)[C@H](O[C@@H]2[C@H]1O)O[C@H](C)C[C@@]3(O)CNCc1ccc(S(C)(=O)=O)cc1 [compound 69, 3′-(R)-3′-[(4-(methylsulfonyl)benzylaminomethyl)]dihydrospectino-mycin trihydrobromide] | 100 µg/mL | > 200 µg/mL | > 200 µg/mL | 100 µg/mL | > 200 µg/mL | > 200 µg/mL | > 200 µg/mL | > 200 µg/mL | > 200 µg/mL | > 200 µg/mL | > 200 µg/mL | > 200 µg/mL | 12.5 to 25 µg/mL | > 200 µg/mL | 50 to 100 µg/mL | – |
| CN[C@@H]1[C@H](O)[C@H](NC)[C@H]2O[C@]3(O)[C@H](O[C@@H]2[C@H]1O)O[C@H](C)CC3(O)CN (stereo partly drawn) [mSPC, 3′-aminomethyl-3′-hydroxy spectinomycin, reference compound] | – | – | – | – | – | – | – | – | – | – | – | – | – | – | – | MIC ([2]; Streptococcus pneumoniae, S. pneumoniae R6, Drug Susceptible, read-out: MIC R6): 50 µg/mL (≈ 138 µM); MIC ([17]; BAA1407, S. pneumoniae BAA-1407, Macrolide Resistant, read-out: MIC BAA-1407): 200 µg/mL (≈ 550 µM); MIC ([17]; S. pneumoniae A66.1x, Drug Susceptible, read-out: MIC A66.1x): 50 µg/mL (≈ 138 µM); MIC ([17]; S. pneumoniae BHN97x, Drug Susceptible, read-out: MIC BHN97x): 50 µg/mL (≈ 138 µM); MIC ([17]; S. pneumoniae D39X, Drug Susceptible, read-out: MIC D39X): 100 µg/mL (≈ 275 µM); MIC ([17]; S. pneumoniae Daw7, PenG Resistant, read-out: MIC Daw7): 100 µg/mL (≈ 275 µM); MIC ([17]; S. pneumoniae Daw8, PenG Resistant, read-out: MIC Daw8): 100 µg/mL (≈ 275 µM); MIC ([17]; S. pneumoniae Daw9, PenG Resistant, read-out: MIC Daw9): 50 µg/mL (≈ 138 µM); MIC ([17]; S. pneumoniae Daw62, PenG Resistant, read-out: MIC Daw62): 100 µg/mL (≈ 275 µM); MIC ([17]; S. pneumoniae Daw64, PenG Resistant, read-out: MIC Daw64): 100 µg/mL (≈ 275 µM); MIC ([17]; S. pneumoniae OVA6, Macrolide Resistant, read-out: MIC OVA6): 50 µg/mL (≈ 138 µM); MIC ([17]; S. pneumoniae T4X, Drug Susceptible, read-out: MIC T4X): 50 µg/mL (≈ 138 µM) |
